Measured values published in ChEMBL document CHEMBL5465560, “Selectivity Literature for EUbOPEN Chemogenomic Library” (2024).
Blank lines part the entries; values can stand above or below the compound they belong to.

Experiments:
[1] = target: 5'-AMP-activated protein kinase catalytic subunit alpha-1 (Homo sapiens, UniProt Q13131); experiment: Selectivity interaction (ActivX KiNativ screen (kinase selectivity in THP-1 cell lysates)) EUB0000639a PRKAA1; type: subcellular; details: lysate, at 0.2 µM
[2] = target: Calcium/calmodulin-dependent protein kinase type II subunit delta (Homo sapiens) (UniProt Q13557); experiment: Selectivity interaction (ActivX KiNativ screen (kinase selectivity in THP-1 cell lysates)) EUB0000639a CAMK2D; type: subcellular; details: lysate, at 0.2 µM
[3] = target: 1-phosphatidylinositol 3-phosphate 5-kinase (Homo sapiens) (UniProt Q9Y2I7); experiment: Selectivity interaction (KinomeScan (DiscoverX)) EUB0001550a PIKFYVE; details: at 1 µM
[4] = target: Tyrosine-protein kinase ABL2 (Homo sapiens, UniProt P42684); experiment: Selectivity interaction (Kinase panel (Z-LYTE Assay)) EUB0001632a ABL2; details: at 10 µM
D(1A) dopamine receptor = D(1A) dopamine receptor (Homo sapiens, UniProt P21728); experiment: Selectivity interaction (Eurofins CEREP Diversity Profile (receptors and ion channels)) EUB0000279b DRD1; details: at 10 µM
[5] = target: BDNF/NT-3 growth factors receptor (Homo sapiens) (UniProt Q16620); experiment: Selectivity interaction (KinomeScan (DiscoverX)) EUB0000595a NTRK2; details: at 10 µM
[6] = target: Calcium/calmodulin-dependent protein kinase type 1 (Homo sapiens) (UniProt Q14012); experiment: Selectivity interaction (KinomeScan (DiscoverX)) EUB0000229b CAMK1; details: at 10 µM
[7] = target: Mitogen-activated protein kinase kinase kinase 20 (Homo sapiens) (UniProt Q9NYL2); experiment: Selectivity interaction (ProQinase) EUB0000171b MAP3K20
[8] = target: Serine/threonine-protein kinase pim-1 (Homo sapiens, UniProt P11309); experiment: Selectivity interaction (KinomeScan (DiscoverX)) EUB0000092b PIM1; details: at 10 µM
[9] = target: T1, Dual specificity mitogen-activated protein kinase kinase 4 (Homo sapiens) (UniProt P45985); experiment: Selectivity interaction (KinomeScan (DiscoverX)) EUB0000092b MAP2K4; details: at 10 µM
T1 sequence (whole entry): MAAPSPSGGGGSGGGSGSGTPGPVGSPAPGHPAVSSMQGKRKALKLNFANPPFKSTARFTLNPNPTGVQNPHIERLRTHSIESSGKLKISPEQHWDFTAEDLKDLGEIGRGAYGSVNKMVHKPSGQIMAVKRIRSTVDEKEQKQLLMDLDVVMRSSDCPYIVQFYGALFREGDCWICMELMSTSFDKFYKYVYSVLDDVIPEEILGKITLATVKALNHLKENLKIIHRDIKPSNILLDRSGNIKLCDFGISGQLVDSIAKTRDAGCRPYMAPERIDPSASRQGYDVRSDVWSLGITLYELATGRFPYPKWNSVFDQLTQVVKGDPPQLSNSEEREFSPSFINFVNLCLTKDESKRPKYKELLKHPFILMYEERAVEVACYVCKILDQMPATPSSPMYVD

[10] = target: Serine/threonine-protein kinase WNK3 (Homo sapiens) (UniProt Q9BYP7); experiment: Selectivity interaction (Upstate Kinase Profiler service (Millipore)) EUB0000056c WNK3; details: at 1 µM
[11] = target: RAC-alpha serine/threonine-protein kinase (Homo sapiens, UniProt P31749); experiment: Selectivity interaction (KinomeScan (DiscoverX)) EUB0000045b AKT1
[12] = target: Mitogen-activated protein kinase kinase kinase 4 (Homo sapiens) (UniProt Q9Y6R4); experiment: Selectivity interaction (ActivX KiNativ screen (ex vivo kinase selectivity in human PBMCs)) EUB0001619a MAP3K4; type: cell-based; details: PBMC, at 1 µM
[13] = target: T2, Non-receptor tyrosine-protein kinase TNK1 (Homo sapiens) (UniProt Q13470); experiment: Selectivity interaction (KinomeScan (DiscoverX)) EUB0001619a TNK1; details: at 1 µM
T2 sequence (whole entry): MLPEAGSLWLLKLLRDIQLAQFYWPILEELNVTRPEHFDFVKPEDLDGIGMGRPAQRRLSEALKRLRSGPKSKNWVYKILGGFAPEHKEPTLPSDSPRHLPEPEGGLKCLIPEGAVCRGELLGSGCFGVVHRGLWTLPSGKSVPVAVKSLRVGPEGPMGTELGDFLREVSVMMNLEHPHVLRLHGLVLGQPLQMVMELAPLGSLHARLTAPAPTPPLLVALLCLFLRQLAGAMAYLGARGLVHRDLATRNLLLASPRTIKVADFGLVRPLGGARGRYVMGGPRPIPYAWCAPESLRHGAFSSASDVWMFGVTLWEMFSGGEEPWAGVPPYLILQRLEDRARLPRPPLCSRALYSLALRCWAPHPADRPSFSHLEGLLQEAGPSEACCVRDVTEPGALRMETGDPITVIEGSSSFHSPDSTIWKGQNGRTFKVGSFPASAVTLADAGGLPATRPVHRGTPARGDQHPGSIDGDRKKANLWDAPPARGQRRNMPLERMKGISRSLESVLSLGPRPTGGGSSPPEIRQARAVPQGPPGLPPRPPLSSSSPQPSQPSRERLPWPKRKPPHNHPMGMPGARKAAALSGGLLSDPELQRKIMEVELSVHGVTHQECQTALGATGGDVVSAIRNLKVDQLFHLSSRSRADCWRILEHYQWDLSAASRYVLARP

[14] = target: Cyclin-dependent kinase-like 1 (Homo sapiens) (UniProt Q00532); experiment: Selectivity interaction (KinomeScan (DiscoverX)) EUB0001619a CDKL1; details: at 1 µM
[15] = target: MAP kinase-activated protein kinase 2 (Homo sapiens, UniProt P49137); experiment: Selectivity interaction (KinomeScan (DiscoverX)) EUB0000666a MAPKAPK2; details: at 10 µM
[16] = target: T3, 5-hydroxytryptamine receptor 3A (Homo sapiens) (UniProt P46098); experiment: Selectivity interaction (Panel of kinases, GPCRs, ion channels and transporters (enzymatic assay)) EUB0000223bCl HTR3A
T3 sequence (whole entry): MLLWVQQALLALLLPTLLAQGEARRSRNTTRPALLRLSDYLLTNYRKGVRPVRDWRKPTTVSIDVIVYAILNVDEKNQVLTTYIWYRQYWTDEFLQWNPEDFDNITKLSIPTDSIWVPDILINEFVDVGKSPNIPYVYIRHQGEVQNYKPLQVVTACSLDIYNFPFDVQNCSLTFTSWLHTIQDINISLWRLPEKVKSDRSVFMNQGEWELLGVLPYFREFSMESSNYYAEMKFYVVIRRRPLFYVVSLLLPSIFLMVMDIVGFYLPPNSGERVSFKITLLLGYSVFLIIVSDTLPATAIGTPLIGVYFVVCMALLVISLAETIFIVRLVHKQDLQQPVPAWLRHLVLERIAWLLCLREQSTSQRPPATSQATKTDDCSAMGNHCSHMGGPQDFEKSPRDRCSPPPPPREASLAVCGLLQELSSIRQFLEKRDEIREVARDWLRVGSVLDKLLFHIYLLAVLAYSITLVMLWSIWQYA

[17] = target: Calcium/calmodulin-dependent protein kinase kinase 2 (Homo sapiens) (UniProt Q96RR4); experiment: Selectivity interaction (Kinase panel (DSF assay)) EUB0001558a CAMKK2

Chain of Mitogen-activated protein kinase kinase kinase 20 (Homo sapiens) (Q9NYL2 2-800 limits assumed): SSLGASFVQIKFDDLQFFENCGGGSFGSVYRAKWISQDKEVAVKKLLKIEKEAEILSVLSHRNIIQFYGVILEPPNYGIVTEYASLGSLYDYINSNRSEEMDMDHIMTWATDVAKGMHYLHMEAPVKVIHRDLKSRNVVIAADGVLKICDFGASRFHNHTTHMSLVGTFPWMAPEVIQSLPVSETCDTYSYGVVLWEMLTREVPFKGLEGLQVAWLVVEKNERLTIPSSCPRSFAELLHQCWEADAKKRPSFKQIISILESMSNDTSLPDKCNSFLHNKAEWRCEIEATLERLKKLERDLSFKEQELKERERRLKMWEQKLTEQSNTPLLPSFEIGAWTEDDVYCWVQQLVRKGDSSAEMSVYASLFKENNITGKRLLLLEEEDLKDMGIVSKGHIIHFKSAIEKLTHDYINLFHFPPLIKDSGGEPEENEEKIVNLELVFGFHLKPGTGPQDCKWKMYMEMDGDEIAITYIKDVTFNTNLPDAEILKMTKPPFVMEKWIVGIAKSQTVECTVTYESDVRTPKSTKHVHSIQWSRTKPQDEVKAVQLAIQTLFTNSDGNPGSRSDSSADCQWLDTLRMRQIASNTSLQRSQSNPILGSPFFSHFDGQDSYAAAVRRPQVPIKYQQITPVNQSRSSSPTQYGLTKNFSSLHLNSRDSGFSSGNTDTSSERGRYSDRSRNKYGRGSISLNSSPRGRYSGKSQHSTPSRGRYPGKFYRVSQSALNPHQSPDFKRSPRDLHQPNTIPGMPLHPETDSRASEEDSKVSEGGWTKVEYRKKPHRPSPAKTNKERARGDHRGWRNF
Chain of RAC-alpha serine/threonine-protein kinase (P31749 whole entry): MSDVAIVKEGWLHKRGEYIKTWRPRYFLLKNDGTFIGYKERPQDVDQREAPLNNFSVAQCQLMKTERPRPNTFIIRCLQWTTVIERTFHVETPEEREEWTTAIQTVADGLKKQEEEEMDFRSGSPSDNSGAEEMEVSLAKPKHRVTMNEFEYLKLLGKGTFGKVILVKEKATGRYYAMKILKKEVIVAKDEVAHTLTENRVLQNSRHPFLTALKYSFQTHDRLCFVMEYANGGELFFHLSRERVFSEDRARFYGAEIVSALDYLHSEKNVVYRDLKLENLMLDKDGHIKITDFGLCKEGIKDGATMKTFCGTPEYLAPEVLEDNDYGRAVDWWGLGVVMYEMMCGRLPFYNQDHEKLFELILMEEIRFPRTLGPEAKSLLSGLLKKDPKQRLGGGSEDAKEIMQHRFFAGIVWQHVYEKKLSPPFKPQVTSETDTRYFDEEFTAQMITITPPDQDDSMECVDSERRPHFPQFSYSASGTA
Chain of Serine/threonine-protein kinase pim-1 (P11309 whole entry, looked up): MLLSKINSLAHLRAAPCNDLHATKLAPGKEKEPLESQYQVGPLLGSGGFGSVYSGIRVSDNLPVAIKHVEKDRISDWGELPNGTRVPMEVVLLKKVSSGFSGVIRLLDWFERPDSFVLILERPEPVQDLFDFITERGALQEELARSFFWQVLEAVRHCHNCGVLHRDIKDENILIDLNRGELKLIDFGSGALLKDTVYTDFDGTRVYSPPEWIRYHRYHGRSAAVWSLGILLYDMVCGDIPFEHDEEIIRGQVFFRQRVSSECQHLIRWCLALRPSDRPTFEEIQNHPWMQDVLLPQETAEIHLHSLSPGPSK
Chain of Calcium/calmodulin-dependent protein kinase type 1 (Homo sapiens) (Q14012 whole entry, looked up): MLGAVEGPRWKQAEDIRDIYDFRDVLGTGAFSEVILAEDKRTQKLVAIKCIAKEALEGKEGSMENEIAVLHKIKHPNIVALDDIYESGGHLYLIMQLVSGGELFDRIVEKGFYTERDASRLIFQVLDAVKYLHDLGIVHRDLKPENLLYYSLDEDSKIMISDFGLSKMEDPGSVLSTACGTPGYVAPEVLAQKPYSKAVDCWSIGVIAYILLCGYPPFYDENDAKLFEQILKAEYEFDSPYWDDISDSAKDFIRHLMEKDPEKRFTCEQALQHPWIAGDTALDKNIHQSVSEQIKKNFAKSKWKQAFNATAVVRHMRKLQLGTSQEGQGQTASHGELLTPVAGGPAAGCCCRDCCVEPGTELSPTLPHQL
Chain of 1-phosphatidylinositol 3-phosphate 5-kinase (Homo sapiens) (Q9Y2I7 whole entry): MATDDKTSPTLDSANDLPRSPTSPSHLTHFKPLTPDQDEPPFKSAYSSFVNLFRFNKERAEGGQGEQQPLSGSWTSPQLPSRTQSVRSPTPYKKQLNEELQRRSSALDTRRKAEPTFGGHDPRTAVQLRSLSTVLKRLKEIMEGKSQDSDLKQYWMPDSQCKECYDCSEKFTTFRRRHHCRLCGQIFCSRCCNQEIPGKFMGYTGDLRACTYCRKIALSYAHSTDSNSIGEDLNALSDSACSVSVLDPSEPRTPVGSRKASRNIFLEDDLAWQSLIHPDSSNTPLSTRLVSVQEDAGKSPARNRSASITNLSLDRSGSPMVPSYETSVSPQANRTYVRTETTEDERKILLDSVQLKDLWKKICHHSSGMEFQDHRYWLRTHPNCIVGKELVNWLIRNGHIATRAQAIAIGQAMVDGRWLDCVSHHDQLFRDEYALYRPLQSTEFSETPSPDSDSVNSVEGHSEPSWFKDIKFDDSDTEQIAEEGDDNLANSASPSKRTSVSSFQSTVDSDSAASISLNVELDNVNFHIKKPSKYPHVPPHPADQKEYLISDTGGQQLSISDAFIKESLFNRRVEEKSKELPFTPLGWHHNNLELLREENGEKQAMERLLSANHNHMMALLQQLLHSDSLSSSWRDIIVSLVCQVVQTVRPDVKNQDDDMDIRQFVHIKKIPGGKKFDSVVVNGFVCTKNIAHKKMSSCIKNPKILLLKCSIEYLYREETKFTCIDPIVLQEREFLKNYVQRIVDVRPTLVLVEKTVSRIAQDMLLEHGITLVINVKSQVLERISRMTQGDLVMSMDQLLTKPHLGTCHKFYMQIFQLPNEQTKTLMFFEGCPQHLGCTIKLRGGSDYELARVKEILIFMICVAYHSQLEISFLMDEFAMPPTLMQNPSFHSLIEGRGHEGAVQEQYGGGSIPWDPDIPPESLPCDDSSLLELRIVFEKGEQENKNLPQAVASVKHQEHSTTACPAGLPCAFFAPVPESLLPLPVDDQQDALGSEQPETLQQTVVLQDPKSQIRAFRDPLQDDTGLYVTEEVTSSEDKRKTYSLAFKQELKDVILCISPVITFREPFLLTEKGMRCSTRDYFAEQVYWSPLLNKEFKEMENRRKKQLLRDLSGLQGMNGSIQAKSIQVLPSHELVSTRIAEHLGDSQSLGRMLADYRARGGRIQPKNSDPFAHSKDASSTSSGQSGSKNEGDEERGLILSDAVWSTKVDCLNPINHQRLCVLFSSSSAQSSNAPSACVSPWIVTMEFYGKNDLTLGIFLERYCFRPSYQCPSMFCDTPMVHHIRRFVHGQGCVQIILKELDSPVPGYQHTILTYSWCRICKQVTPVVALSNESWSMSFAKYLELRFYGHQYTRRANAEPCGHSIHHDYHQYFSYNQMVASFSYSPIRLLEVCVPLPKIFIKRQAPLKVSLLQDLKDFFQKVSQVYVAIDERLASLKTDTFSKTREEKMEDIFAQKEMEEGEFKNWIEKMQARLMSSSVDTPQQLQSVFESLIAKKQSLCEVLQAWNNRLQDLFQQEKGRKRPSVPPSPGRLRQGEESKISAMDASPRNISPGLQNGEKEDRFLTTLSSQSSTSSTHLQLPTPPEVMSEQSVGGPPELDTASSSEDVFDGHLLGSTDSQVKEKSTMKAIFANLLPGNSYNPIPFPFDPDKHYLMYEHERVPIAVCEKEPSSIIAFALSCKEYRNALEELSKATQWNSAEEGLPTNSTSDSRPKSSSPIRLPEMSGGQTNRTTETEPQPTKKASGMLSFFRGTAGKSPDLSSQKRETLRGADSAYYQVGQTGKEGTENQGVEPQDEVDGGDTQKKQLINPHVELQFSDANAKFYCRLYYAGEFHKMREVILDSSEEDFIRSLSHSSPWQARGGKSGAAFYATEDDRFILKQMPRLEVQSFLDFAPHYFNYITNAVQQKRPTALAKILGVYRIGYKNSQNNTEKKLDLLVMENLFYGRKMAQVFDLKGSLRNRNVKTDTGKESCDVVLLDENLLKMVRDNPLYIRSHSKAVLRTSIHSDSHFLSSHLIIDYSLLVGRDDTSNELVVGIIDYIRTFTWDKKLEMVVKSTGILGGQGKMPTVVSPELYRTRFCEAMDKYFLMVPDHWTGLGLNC
Chain of Cyclin-dependent kinase-like 1 (Homo sapiens) (Q00532 whole entry): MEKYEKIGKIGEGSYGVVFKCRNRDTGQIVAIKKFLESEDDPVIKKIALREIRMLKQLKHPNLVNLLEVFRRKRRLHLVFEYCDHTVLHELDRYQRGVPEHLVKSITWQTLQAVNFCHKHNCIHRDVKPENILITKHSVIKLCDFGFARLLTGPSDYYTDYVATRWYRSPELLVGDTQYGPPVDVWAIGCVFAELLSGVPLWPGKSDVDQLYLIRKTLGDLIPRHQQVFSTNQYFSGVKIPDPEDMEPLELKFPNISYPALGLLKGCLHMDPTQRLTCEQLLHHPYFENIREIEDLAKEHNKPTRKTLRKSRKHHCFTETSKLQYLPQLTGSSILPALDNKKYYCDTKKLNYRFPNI
Chain of 5'-AMP-activated protein kinase catalytic subunit alpha-1 (Q13131 whole entry, looked up): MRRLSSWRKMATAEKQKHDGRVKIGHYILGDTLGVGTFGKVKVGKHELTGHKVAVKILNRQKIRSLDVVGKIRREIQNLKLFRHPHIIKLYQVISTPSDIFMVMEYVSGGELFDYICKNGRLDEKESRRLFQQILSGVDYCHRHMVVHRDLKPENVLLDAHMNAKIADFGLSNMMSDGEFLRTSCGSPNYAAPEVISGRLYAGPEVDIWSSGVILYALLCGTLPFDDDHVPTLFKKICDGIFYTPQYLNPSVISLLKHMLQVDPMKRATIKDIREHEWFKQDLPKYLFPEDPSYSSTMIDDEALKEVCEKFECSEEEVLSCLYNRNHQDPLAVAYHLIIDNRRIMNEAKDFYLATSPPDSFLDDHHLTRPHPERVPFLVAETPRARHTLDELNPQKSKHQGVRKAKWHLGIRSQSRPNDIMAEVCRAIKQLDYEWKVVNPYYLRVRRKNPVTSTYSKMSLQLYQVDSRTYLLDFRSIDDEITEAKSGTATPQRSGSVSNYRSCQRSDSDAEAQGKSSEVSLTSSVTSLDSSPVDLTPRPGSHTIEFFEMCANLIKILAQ

% of inhibition [1]: 8.7% | % of inhibition [2]: 6.9%
SMILES: CC[C@@H]1[C@H](F)C(=O)N[C@@H]1COc1nccc2cc(C(N)=O)c(OC)cc12 [ZIMLOVISERTIB]

% of control [3]: 0.1%
SMILES: CN(C)CC#Cc1ccc2[nH]c3c(c2c1)-c1nc(N)ncc1CCC3

% of control [4]: 6.33%
SMILES: Cn1cc(-n2cnc3c(NCc4nc5cc(Cl)c(Cl)cc5[nH]4)nc(N4CCOCC4)nc32)cn1

% of control (D(1A) dopamine receptor): 90%
SMILES: CC(=O)c1cc(-c2ccccc2OCC2CC2)c2ncccn12

SMILES: COCC(=O)NC/C=C/c1ccc2ncnc(Nc3ccc(Oc4ccc(C)nc4)c(C)c3)c2c1 [CP-724714]
% of control [5]: 100%

SMILES: COc1cc(N(C)c2ccnc3ccc(C(F)(F)F)cc23)cc(OC)c1OC
% binding [6]: 59%

% of control ([7]; at 1 µM): 48% | % of control ([7]; at 5 µM): 15%
SMILES: C=CC(=O)Nc1cccc(C(=O)Nc2ccc(Nc3cc(-c4[nH]c(SC)nc4C)ccn3)cc2)c1

SMILES: CCC(=O)N1CCN(c2ccc(-n3c(=O)ccc4cnc5ccc(-c6cnc7ccccc7c6)cc5c43)cc2C(F)(F)F)CC1
% of control [8]: 80% | % of control [9]: 30%

% of inhibition [10]: -1%
SMILES: Cc1ccc(-c2ccc3c(ccc4sc5c(c43)NC[C@@H](C)NC5=O)n2)cn1

SMILES: C=CC(=O)Nc1cc(-n2c(=O)ccc3cnc4ccc(-c5ccc(NS(C)(=O)=O)cc5)cc4c32)ccc1C
% of control ([11]; at 1 µM): 12% | % of control ([11]; at 10 µM): 100%

SMILES: N#Cc1cccc(-c2c[nH]c3ncnc(N4CCOCC4)c23)c1
% of inhibition [12]: 30% | % of control [13]: 32% | % of control [14]: 100%

SMILES: O=C(NOC[C@H](O)CO)c1ccc(F)c(F)c1Nc1ccc(I)cc1F
% of control [15]: 84%

SMILES: COc1cc(C(=O)N2CC[C@@H](O)[C@@H](N)C2)cc2nc(-c3cc4ccccc4n3CC3CC3)n(C)c12
pXC50 [16]: 4.3 M

SMILES: CC(C)(O)[C@H](F)CN1Cc2cc(NC(=O)c3cnn4cccnc34)c(N3CCOCC3)cc2C1=O
dTM [17]: 4.3 K
